Here are results for one molecule from article PMC10184535, “An HR2-Mimicking Sulfonyl-γ-AApeptide Is a Potent Pan-coronavirus Fusion Inhibitor with Strong Blood–Brain Barrier Permeability, Long Half-Life, and Promising Oral Bioavailability” (ACS Central Science, 2023).

The assay concerns authentic SARS-CoV-2 Delta variant. The following applies: 48 h.

As usually defined, the IC50 is the concentration that gives 50% inhibition. A low value points to inhibition by little substance. For `CC[C@H](C)[C@H](NC(=O)[C@H](C)NC(=O)[C@H](CCC(=O)O)NC(=O)[C@H](CCC(=O)O)NC(=O)[C@H](CC(C)C)NC(=O)[C@H](CCCCN)NC(=O)[C@H](CCCCN)NC(=O)[C@H](CCSC)NC(=O)[C@H](CCC(=O)O)NC(=O)[C@H](Cc1ccc(O)cc1)NC(=O)[C@H](CCC(=O)O)NC(=O)[C@H](CC(C)C)NC(=O)[C@H](CC(=O)O)NC(=O)[C@H](CC(C)C)NC(=O)[C@H](Cc1ccccc1)NC(=O)[C@@H](NC(=O)[C@@H](NC(=O)[C@H](CC(N)=O)NC(=O)[C@@H](NC(=O)[C@H](CCC(N)=O)NC(=O)[C@H](CC(=O)O)NC(=O)[C@H](CC(C)C)NC(=O)[C@@H](N)CO)[C@@H](C)CC)C(C)C)[C@@H](C)O)C(=O)N[C@@H](CCCCN)C(=O)N[C@@H](CCCCN)C(=O)N[C@@H](CC(C)C)C(=O)N[C@@H](CCC(=O)O)C(=O)N[C@@H](CCC(=O)O)C(=O)N[C@@H](CO)C(=O)N[C@@H](Cc1ccc(O)cc1)C(=O)N[C@H](C(=O)N[C@@H](CC(=O)O)C(=O)N[C@@H](CC(C)C)C(=O)N[C@@H](CCCCN)C(=O)N[C@@H](CCC(=O)O)C(=O)N[C@@H](CC(C)C)C(=O)O)[C@@H](C)CC` [EK1], 2.86 µM corresponded to half-maximal inhibition (IC50).
